melting point	SMILES
114 to 115 °C	CCOc1ccc(N/C=C(\C(=O)Nc2ccccc2)c2cc(C)no2)cc1 [Example 3, α-[[(4-Ethoxyphenyl)amino]methylene]-3-methyl-N-phenyl-5-isoxazoleacetamide]
179 to 180 °C	Cc1cc(/C(=C/Nc2ccc(Cl)cc2)C(=O)Nc2ccc(Cl)cc2)no1 [Example 8, N-(4-Chlorophenyl)-α-[[4-(chlorophenyl)amino]methylene]-5-methyl-3-isoxazoleacetamide]

Reference: US7820663B2, “Substituted enaminones, their derivatives and uses thereof” (The Regents of the University of California, priority 2005, dated 2010)
